Experimental findings from patent publication US20180228861A1, “COMPOSITION FOR TREATING DIABETES AND DYSLIPIDEMIA OBTAINED FROM THE EXTRACT OF COSTUS PICTUS D.DON PLANT AND A METHOD OF PREPARING THE SAME” (ARJUNA NATURAL EXTRACTS, LTD., priority 2012, published 2018) are described below.

Holding throughout (format): in vivo
Common to all, as to conditions: extracts 40 mg/kg orally, glibenclamide 3 mg/kg orally

Assay [1] concerns streptozotocin-induced Type 1 diabetic model in Wistar rats. The experiment in a line: Blood glucose level in streptozotocin-induced Type 1 diabetic model. As for the experimental part:
Evaluation of effect of different fractions of fresh leaves of Costus pictus D. Donon streptozotocin-induced Type 1 diabetic model in Wistar rats.
(§1) The study was conducted in adult male Wistar rats weighing 200-250 gm for a period of 40 days (30 days of treatment and 10 days of induction). The animals were randomly divided into seven groups comprising six each. Diabetes was induced in all the groups except the normal control group by the intra peritoneal administration of streptozotocin at 50 mg/kg. After the induction of diabetes, one group was kept as diabetic untreated control and a positive control was maintained in which the animals were treated with standard drug, glibenclamide at 3 mg/kg orally. […] The effect of the different fractions was assessed by measuring the fasting blood glucose level, post prandial blood glucose level, serum insulin levels and glycosylated Hb. The anti hyperlipidemic effect was assessed by the estimation of total cholesterol, triglyceride, LDL cholesterol, HDL cholesterol, VLDL, muscle glycogen and liver glycogen. The antioxidant effects of the different extracts were assessed by the measuring TBARS, superoxide dismutase (SOD), catalase, reduced glutathione (GSH) and glutathione peroxidase levels (GPx). TBARS was determined by TBA assay (Ohkawa et al., 1979), SOD was measured using the nitroblue tetrazolium reduction method (Kakkar et al., 1984), Catalase was assayed using the method described by Aebi (1974). GPx was measured as described by Flohe and Gunzler (1984), GSH was measured as per the method of Jollow et al., (1974). Histopathological examination of pancreas was conducted to assess the antidiabetic effect of the different fractions of Costus pictus D. Don.
Group 3—Positive control—diabetic animals treated with glibenclamide at 3 mg/kg orally.
Group 4—diabetic animals treated with methanolic extract of fresh leaves of Costus pictus D. Don, the extract has low oxalic acid and/or oxalates content (Sample 2 prepared as per Example 1) at 40 mg/kg orally. […]

Assay [2] shares this test system. The experiment in a line: Lipid profile in streptozotocin-induced diabetic rats. As for the experimental part:
as §1, with “mg/kg.” for “mg/kg. After the induction of diabetes, one group was kept as diabetic untreated control and a positive control was maintained in which the animals were treated with standard drug, glibenclamide at 3 mg/kg orally.”

The test system is the same in assay [3]. The experiment in a line: Insulin and glycosylated Hb levels in streptozotocin-induced diabetic rats. As for the experimental part: as §1, with “mg/kg.” for “mg/kg. After the induction of diabetes, one group was kept as diabetic untreated control and a positive control was maintained in which the animals were treated with standard drug, glibenclamide at 3 mg/kg orally.”

Turning to `COc1ccc(Cl)cc1C(=O)NCCc1ccc(S(=O)(=O)NC(=O)NC2CCCCC2)cc1` [glibenclamide], in assay [1] (0th day), the “blood glucose levels, 0th day” value turned out to be 321 mg/dL. Further, in assay [1] (15th day), the “blood glucose levels, 15th day” value was 126 mg/dL. Further, the “blood glucose levels, 30th day” value in assay [1] (30th day) came out at 71 mg/dL. In assay [2] (HDL cholesterol), the HDL worked out at 52 mg/dL. This compound showed an LDL in assay [2] (LDL cholesterol) of 56 mg/dL. The compound also yielded a VLDL in assay [2] of 20 mg/dL. In addition, in assay [2] (total cholesterol), the TC stood at 128 mg/dL. Besides, in assay [2] (triglyceride), the TG came out at 100 mg/dL. For the same compound, in assay [3], the “Glycosylated Hb” value is listed as 0.5 % total Hb and the Insulin level is 13 μU/ml.
